Results published in patent publication US6573275B1, “Bicyclic amines” (Syngenta Limited, priority 1995, dated 2003).

System: peach aphid (Myzus persicae)
Assay: Insecticidal test against peach aphid, infested Chinese cabbage leaves sprayed
Format: in vivo
Conditions: peach aphid (Myzus persicae) on Chinese cabbage leaves, sprayed with 500 ppm composition unless otherwise stated, mortality assessed after 3 days
Method: This Example illustrates the insecticidal properties of the compounds of Formula I. The activity of the compounds of Formula I was determined using a variety of pests. The pests were treated with a liquid composition containing 500 parts per million (ppm) by weight of the compound unless otherwise stated. The compositions were made by dissolving the compound in acetone and ethanol (50:50) mixture and diluting the solutions with water containing 0.05% by weight of a wetting agent sold under the trade name “SYNPERONIC” NP8 until the liquid composition contained the required concentration of the compound. “SYNPERONIC” is a Registered Trade Mark.
The test procedure adopted with regard to each pest was basically the same and comprised supporting a number of the pests on a medium which was usually a substrate, a host plant or a foodstuff on which the pests feed, and treating either or both the medium and the pests with the compositions. The mortality of the pests was then assessed at periods usually varying from two to five days after the treatment.
In this test Chinese cabbage leaves were infested with aphids, the infested leaves were sprayed with the test composition, and the mortality assessed after 3 days.

## N#CC1(c2cncc(Cl)c2)CC2CCC(C1)N2Cc1c(F)c(F)c(F)c(F)c1F (stereo not drawn) [Compound 93, exo-3-(5-chloropyrid-3-yl)-endo-3-cyano-8-(pentafluorophenylmethyl)-8-azabicyclo[3.2.1]octane]
  Score (grading of mortality): A (A indicates 80-100% mortality)

## N#CC1(c2cncc(Cl)c2)CC2CCC(C1)N2Cc1cccc(F)c1F (centres unmarked) [Compound 103]
  Score (grading of mortality): A (A indicates 80-100% mortality)

## N#CC1(c2cncc(Cl)c2)CC2CCC(C1)N2Cc1cc(C(F)(F)F)ccc1F (centres unmarked) [Compound 265]
  Score (grading of mortality): A (A indicates 80-100% mortality)

## N#CC1(c2cncc(Cl)c2)CC2CCC(C1)N2CCc1ccccc1 (stereo not drawn) [Compound 104, exo-3-(5-chloropyrid-3-yl)-endo-3-cyano-8-(2-phenylethyl)-8-azabicyclo[3.2.1]octane]
  Score (grading of mortality): A (A indicates 80-100% mortality)

## N#CC1(c2cc(F)cc(F)c2)CC2CCC(C1)N2Cc1cc(Cl)cc(Cl)c1 (centres unmarked) [Compound 17]
  Score (grading of mortality): C (C indicates less than 40% mortality)

## N#CC1(c2cncc(Cl)c2)CC2CCC(C1)N2Cc1ccc(C(=O)O)cc1 (centres unmarked) [Compound 101]
  Score (grading of mortality): A (A indicates 80-100% mortality)

## N#Cc1ccc(CN2C3CCC2CC(C#N)(c2cncc(Cl)c2)C3)cc1 (centres unmarked) [Compound 270]
  Score (grading of mortality): A (A indicates 80-100% mortality)

## N#CC1(c2cc(F)cc(F)c2)CC2CCC(C1)N2Cc1cccnc1 (centres unmarked) [Compound 15]
  Score (grading of mortality): A (A indicates 80-100% mortality)

## CC(C)(N1C2CCC1CC(C#N)(c1cncc(Cl)c1)C2)C(F)(F)F (stereo not drawn) [Compound 209, exo-3-(5-chloropyrid-3-yl)-endo-3-cyano-8-(1,1-dimethyl-2,2,2-trifluoroethyl)-8-azabicyclo[3.2.1]octane]
  Score (grading of mortality): A (A indicates 80-100% mortality)

## CC(C)(C)OC(=O)CN1C2CCC1CC(C#N)(c1cccnc1)C2 (centres unmarked) [Compound 39]
  Score (grading of mortality): C (C indicates less than 40% mortality)

## CC(C)(c1cccc(Cl)c1)N1C2CCC1CC(C#N)(c1cncc(Cl)c1)C2 (centres unmarked) [Compound 205]
  Score (grading of mortality): A (A indicates 80-100% mortality)

## N#CC1(c2cncc(Cl)c2)CC2CCC(C1)N2c1ccccc1 (centres unmarked) [Compound 74]
  Score (grading of mortality): A (A indicates 80-100% mortality)

## CCOC(=O)CN1C2CCC1CC(C#N)(c1cccnc1)C2 (centres unmarked) [Compound 50]
  Score (grading of mortality): A (A indicates 80-100% mortality)

## N#CC1(c2cncc(Cl)c2)CC2CCC(C1)N2C(=O)Nc1ccc(F)c(Cl)c1 (centres unmarked) [Compound 154]
  Score (grading of mortality): B (B indicates 40-79% mortality)

## N#CC1(c2cncc(Cl)c2)CC2CCC(C1)N2c1cccc(F)n1 (stereo not drawn) [Compound 128, exo-3-(5-chloropyrid-3-yl)-endo-3-cyano-8-(6-fluoropyrid-2-yl)-8-azabicyclo[3.2.1]octane]
  Score (grading of mortality): A (A indicates 80-100% mortality)

## C#Cc1cncc(C2(C#N)CC3CCC(C2)N3C)c1 (stereo not drawn) [Compound 193, exo-3-(5-ethynylpyrid-3-yl)-endo-3-cyano-8-methyl-8-azabicyclo[3.2.1]octane]
  Score (grading of mortality): A (A indicates 80-100% mortality)

## C#CCN1C2CCC1CC(C#N)(c1cc(F)cc(F)c1)C2 (centres unmarked) [Compound 22]
  Score (grading of mortality): A (A indicates 80-100% mortality)

## N#CC1(c2cncc(Cl)c2)CC2CCC(C1)N2Cc1cc(C(F)(F)F)cc(C(F)(F)F)c1 (centres unmarked) [Compound 227]
  Score (grading of mortality): A (A indicates 80-100% mortality)

## N#CN1C2CCC1CC(C#N)(c1cncc(Cl)c1)C2 (stereo not drawn) [Compound 169, exo-3-(5-chloropyrid-3-yl)-endo-3-cyano-8-cyano-8-azabicyclo[3.2.1]octane]
  Score (grading of mortality): A (A indicates 80-100% mortality)

## N#CC1(c2cncc(Cl)c2)CC2CCC(C1)N2CC(=O)O (centres unmarked) [Compound 107]
  Score (grading of mortality): A (A indicates 80-100% mortality)

## CCOC(=O)c1ccc(N2C3CCC2CC(C#N)(c2cncc(Cl)c2)C3)cc1 (centres unmarked) [Compound 162]
  Score (grading of mortality): C (C indicates less than 40% mortality)

## N#CC1(c2cnc(F)c(Cl)c2)CC2CCC(C1)N2CC(F)(F)F (centres unmarked) [Compound 163]
  Score (grading of mortality): C (C indicates less than 40% mortality)

## N#CC1(c2cncc(Cl)c2)CC2CCC(C1)N2C(=O)OCc1ccccc1 (centres unmarked) [Compound 91]
  Score (grading of mortality): A (A indicates 80-100% mortality)

## CCOC(=O)CN1C2CCC1CC(C#N)(c1cncc(Cl)c1)C2 (centres unmarked) [Compound 86]
  Score (grading of mortality): A (A indicates 80-100% mortality)

## N#CC1(c2cccnc2)CC2CCC(C1)N2CCO (centres unmarked) [Compound 54]
  Score (grading of mortality): A (A indicates 80-100% mortality)

## CN1C2CCC1CC(C#N)(c1ncncc1Br)C2 (centres unmarked) [Compound 198]
  Score (grading of mortality): A (A indicates 80-100% mortality)

## N#CC1(c2cncc(Cl)c2)CC2CCC(C1)N2Cc1cccc(Cl)c1F (centres unmarked) [Compound 257]
  Score (grading of mortality): A (A indicates 80-100% mortality)

## C[n+]1cccc(C2(C#N)CC3CCC(C2)N3C(=O)OC(C)(C)C)c1.[I-] (centres unmarked) [Compound 40]
  Score (grading of mortality): A (A indicates 80-100% mortality)

## N#CC1(c2cncc(Cl)c2)CC2CCC(C1)N2Cc1cccc([N+](=O)[O-])c1 (centres unmarked) [Compound 274]
  Score (grading of mortality): A (A indicates 80-100% mortality)

## CCCCN1C2CCC1CC(C#N)(c1cncc(Cl)c1)C2 (centres unmarked) [Compound 79]
  Score (grading of mortality): A (A indicates 80-100% mortality)

## N#CC1(c2cc(F)cc(F)c2)CC2CCC(C1)N2Cc1cnc(Cl)c(Cl)c1 (centres unmarked) [Compound 11]
  Score (grading of mortality): A (A indicates 80-100% mortality)

## C[N+]1([O-])C2CCC1CC(C#N)(c1cncc(Cl)c1)C2 (centres unmarked) [Compound 293]
  Score (grading of mortality): A (A indicates 80-100% mortality)

## N#CC1(c2cncc(Cl)c2)CC2CCC(C1)N2C(=S)S (stereo not drawn) [Compound 138, exo-3-(5-chloropyrid-3-yl)-endo-3-cyano-8-(mercaptothiocarbonyl)-8-azabicyclo[3.2.1]octane]
  Score (grading of mortality): A (A indicates 80-100% mortality)

## CS(=O)(=O)CS(=O)(=O)N1C2CCC1CC(C#N)(c1cccnc1)C2 (stereo not drawn) [Compound 44, exo-3-(pyrid-3-yl)-endo-3-cyano-8-(methylsulphonylmethylsulphonyl)-8-azabicyclo[3.2.1]octane]
  Score (grading of mortality): A (A indicates 80-100% mortality)

## N#CC1(c2cc(F)cc(F)c2)CC2CCC(C1)N2C(CO)c1ccccc1 (centres unmarked) [Compound 20]
  Score (grading of mortality): C (C indicates less than 40% mortality)

## N#CC1(c2cncc(Cl)c2)CC2CCC(C1)N2Cc1ccncc1 (centres unmarked) [Compound 119]
  Score (grading of mortality): A (A indicates 80-100% mortality)

## N#CC1(c2cc(F)cc(F)c2)CC2CCC(C1)N2Cc1ccc(Cl)cc1 (centres unmarked) [Compound 14]
  Score (grading of mortality): A (A indicates 80-100% mortality)

## N#CC1(c2cncc(Cl)c2)CC2CCC(C1)N2Cc1ccccc1Br (centres unmarked) [Compound 238]
  Score (grading of mortality): A (A indicates 80-100% mortality)

## CC(C)N1C2CCC1CC(C#N)(c1cncc(Cl)c1)C2 (stereo not drawn) [Compound 87, exo-3-(5-chloropyrid-3-yl)-endo-3-cyano-8-isopropyl-8-azabicyclo[3.2.1]octane]
  Score (grading of mortality): A (A indicates 80-100% mortality)

## C[C@H](c1ccccc1)N1C2CCC1CC(C#N)(c1cncc(Cl)c1)C2 (stereo partly drawn) [Compound 121, (R)-exo-3-(5-chloropyrid-3-yl)-endo-3-cyano-8-(1-phenylethyl)-8-azabicyclo[3.2.1]octane]
  Score (grading of mortality): A (A indicates 80-100% mortality)

## N#CC1(c2cncc(C(F)(F)F)c2)CC2CCC(C1)N2C=O (centres unmarked) [Compound 177]
  Score (grading of mortality): A (A indicates 80-100% mortality)

## N#CC1(c2cccnc2)CC2CCC(C1)N2Cc1ccccc1 (stereo not drawn) [Compound 37, exo-3-(pyrid-3-yl)-endo-3-cyano-8-benzyl-8-azabicyclo[3.2.1]octane]
  Score (grading of mortality): A (A indicates 80-100% mortality)

## N#CC1(c2cncc(Cl)c2)CC2CCC(C1)N2CCCc1ccccc1 (centres unmarked) [Compound 282]
  Score (grading of mortality): A (A indicates 80-100% mortality)

## CC(C)c1ccc(CN2C3CCC2CC(C#N)(c2cncc(Cl)c2)C3)cc1 (centres unmarked) [Compound 247]
  Score (grading of mortality): A (A indicates 80-100% mortality)

## N#CC1(c2cncc(Cl)c2)CC2CCC(C1)N2Cc1ccccn1 (stereo not drawn) [Compound 117, exo-3-(5-chloropyrid-3-yl)-endo-3-cyano-8-(pyrid-2-ylmethyl)-8-azabicyclo[3.2.1]octane]
  Score (grading of mortality): A (A indicates 80-100% mortality)

## COc1cncc(C2(C#N)CC3CCC(C2)N3C)c1 (centres unmarked) [Compound 80]
  Score (grading of mortality): A (A indicates 80-100% mortality)

## CC(c1cccc(Cl)c1)N1C2CCC1CC(C#N)(c1cncc(Cl)c1)C2 (centres unmarked) [Compound 302]
  Score (grading of mortality): A (A indicates 80-100% mortality)

## CN1C2CCC1CC(C#N)(c1cncc(Cl)n1)C2 (stereo not drawn) [Compound 43, exo3-(6-chloropyrazin-2-yl)-endo-3-cyano-8-methyl-8-azabicyclo[3.2.1]octane]
  Score (grading of mortality): A (A indicates 80-100% mortality)

## CN1C2CCC1CC(C#N)(c1cc(Cl)cc(Cl)c1)C2 (centres unmarked) [Compound 1]
  Score (grading of mortality): A (A indicates 80-100% mortality)

## C#CC(C)(C)N1C2CCC1CC(C#N)(c1cncc(Cl)c1)C2 (centres unmarked) [Compound 207]
  Score (grading of mortality): A (A indicates 80-100% mortality)

## C=CC(=O)OCCN1C2CCC1CC(C#N)(c1cncc(Cl)c1)C2 (centres unmarked) [Compound 287]
  Score (grading of mortality): A (A indicates 80-100% mortality)

## CC(=O)Nc1nc(CN2C3CCC2CC(C#N)(c2cncc(Cl)c2)C3)cs1 (centres unmarked) [Compound 153]
  Score (grading of mortality): A (A indicates 80-100% mortality)

## N#CC1(c2cncc(Br)c2)CC2CCC(C1)N2Cc1ccccc1Cl (centres unmarked) [Compound 204]
  Score (grading of mortality): A (A indicates 80-100% mortality)
